Laboratory results published in ChEMBL document CHEMBL1145148, “Discovery of (2S)-N-[(1R)-2-[4-cyclohexyl-4-[[(1,1-dimethylethyl)amino]carbonyl]-1-piperidinyl]-1-[(4-fluorophenyl)methyl]-2-oxoethyl]-4-methyl-2-piperazinecarboxamide (MB243), a potent and selective melanocortin subtype-4 receptor agonist” (Bioorg Med Chem Lett, 2005).
Values joined by “and” are separate entries in the source; they are usually repeats but may differ in a detail not shown here. Equal values may be shown once.

Assays:
[1] = Clearance at 1 mg/kg intravenous administration and 5 mg/kg peroral administration; assay type: ADME, organism-based; conditions: rat, in vivo
Melanocortin receptor 3 [2] = target: T1, Melanocortin receptor 3 (Homo sapiens, UniProt P41968); assay: Concentration for 50% inhibition of human melanocortin-3 receptor expressed in CHO cells using [125I]NDP-alpha-MSH as radioligand; assay type: cell-based
T1 sequence (P41968 whole entry): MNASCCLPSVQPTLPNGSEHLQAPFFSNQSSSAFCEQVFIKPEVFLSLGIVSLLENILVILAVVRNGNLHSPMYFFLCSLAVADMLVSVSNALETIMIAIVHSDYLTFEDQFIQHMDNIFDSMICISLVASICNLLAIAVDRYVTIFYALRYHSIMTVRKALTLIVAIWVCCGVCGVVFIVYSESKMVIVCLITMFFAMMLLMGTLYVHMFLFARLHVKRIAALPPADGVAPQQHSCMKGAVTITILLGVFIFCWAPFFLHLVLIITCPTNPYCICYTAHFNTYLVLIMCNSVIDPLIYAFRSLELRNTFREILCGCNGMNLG

[3] = Half life at 1 mg/kg intravenous administration and 2 mg/kg peroral administration; assay type: ADME, organism-based; conditions: cercopithecidae, in vivo
Melanocortin receptor 3 [4] = target: T1, Melanocortin receptor 3; assay: Effective concentration towards human melanocortin-3 receptor mediated cAMP accumulation in CHO cells; assay type: functional, cell-based, Rattus norvegicus
[5] = target: T2, Melanocyte-stimulating hormone receptor (Homo sapiens, UniProt Q01726); assay: Effective concentration towards human melanocortin-1 receptor mediated cAMP accumulation in CHO cells; assay type: functional, cell-based
Target sequence in this assay (Q01726 whole entry): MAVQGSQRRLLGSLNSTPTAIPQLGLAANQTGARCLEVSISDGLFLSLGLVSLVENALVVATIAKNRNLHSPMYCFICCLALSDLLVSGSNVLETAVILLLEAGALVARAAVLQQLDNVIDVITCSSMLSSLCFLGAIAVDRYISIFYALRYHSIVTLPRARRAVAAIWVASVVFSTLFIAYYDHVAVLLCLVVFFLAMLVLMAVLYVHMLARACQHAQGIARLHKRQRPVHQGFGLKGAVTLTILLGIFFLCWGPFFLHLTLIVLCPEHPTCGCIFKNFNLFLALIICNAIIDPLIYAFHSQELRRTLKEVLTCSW

Melanocortin receptor 5 [6] = target: T3, Melanocortin receptor 5 (Homo sapiens, UniProt P33032); assay: Effective concentration towards human melanocortin-5 receptor mediated cAMP accumulation in CHO cells; assay type: functional, cell-based
T3 sequence (P33032 whole entry): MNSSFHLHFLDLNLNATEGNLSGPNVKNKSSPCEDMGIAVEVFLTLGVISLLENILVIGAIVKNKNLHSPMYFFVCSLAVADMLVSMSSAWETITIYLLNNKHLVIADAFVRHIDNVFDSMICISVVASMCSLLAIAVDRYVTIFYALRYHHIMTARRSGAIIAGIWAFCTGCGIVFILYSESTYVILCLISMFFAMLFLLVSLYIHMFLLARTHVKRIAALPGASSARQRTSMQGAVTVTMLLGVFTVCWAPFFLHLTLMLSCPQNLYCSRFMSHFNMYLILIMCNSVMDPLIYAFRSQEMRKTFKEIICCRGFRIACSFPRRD

Melanocortin receptor 4 [7] = target: T4, Melanocortin receptor 4 (Homo sapiens, UniProt P32245); assay: Effective concentration towards human melanocortin-4 receptor mediated cAMP accumulation in CHO cells; assay type: functional, cell-based
T4 sequence (P32245 whole entry): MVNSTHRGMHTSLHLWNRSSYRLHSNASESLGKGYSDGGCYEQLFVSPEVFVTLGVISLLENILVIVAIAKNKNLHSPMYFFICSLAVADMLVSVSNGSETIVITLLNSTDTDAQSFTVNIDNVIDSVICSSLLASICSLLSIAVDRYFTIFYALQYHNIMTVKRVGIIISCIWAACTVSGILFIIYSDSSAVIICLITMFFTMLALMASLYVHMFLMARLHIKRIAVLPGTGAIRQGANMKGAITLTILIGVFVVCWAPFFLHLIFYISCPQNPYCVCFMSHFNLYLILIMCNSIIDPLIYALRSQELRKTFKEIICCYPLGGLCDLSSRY

[8] = Clearance at 1 mg/kg intravenous administration and 2 mg/kg peroral administration; assay type: ADME, organism-based; conditions: cercopithecidae, in vivo
[9] = Clearance at 0.5 mg/kg intravenous administration and 2 mg/kg peroral administration; assay type: ADME, organism-based, Canis lupus familiaris; conditions: dog, in vivo
[10] = target: Melanocortin receptor 4 (Mus musculus) (UniProt P56450); assay: Concentration of compound at 50% maximum cAMP accumulation at mouse melanocortin-4 receptor; assay type: functional
Sequence of Melanocortin receptor 4 (Mus musculus) (P56450 whole entry): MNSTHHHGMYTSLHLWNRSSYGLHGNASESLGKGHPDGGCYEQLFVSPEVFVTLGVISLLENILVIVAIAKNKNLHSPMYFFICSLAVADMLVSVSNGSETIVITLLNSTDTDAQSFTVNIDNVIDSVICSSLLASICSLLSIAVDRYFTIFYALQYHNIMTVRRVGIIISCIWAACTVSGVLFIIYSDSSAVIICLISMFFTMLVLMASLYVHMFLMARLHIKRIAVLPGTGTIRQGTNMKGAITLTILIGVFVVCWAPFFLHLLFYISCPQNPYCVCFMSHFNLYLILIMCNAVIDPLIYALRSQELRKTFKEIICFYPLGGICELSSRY

[11] = Percentage of cAMP accumulation at 10 uM of compound relative toa-MSH was determined; assay type: functional
[12] = Vdss at 1 mg/kg intravenous administration and 5 mg/kg peroral administration; assay type: ADME, organism-based; conditions: rat, in vivo, read-out: Vdss
[13] = Half life at 1 mg/kg intravenous administration and 5 mg/kg peroral administration; assay type: ADME, organism-based; conditions: rat, in vivo
[14] = target: T2, Melanocyte-stimulating hormone receptor; assay: Concentration of compound at 50% maximum cAMP accumulation at human melanocortin-1 receptor; assay type: functional
Target sequence in this assay (Q01726 whole entry, looked up): as the sequence (Q01726 whole entry) above

Melanocortin receptor 3 [15] = target: T1, Melanocortin receptor 3; assay: Concentration of compound at 50% maximum cAMP accumulation at human melanocortin-3 receptor; assay type: functional
Melanocortin receptor 5 [16] = target: T3, Melanocortin receptor 5; assay: Concentration for 50% inhibition of human melanocortin-5 receptor expressed in CHO cells using [125I]NDP-alpha-MSH as radioligand; assay type: cell-based
Melanocortin receptor 4 [17] = target: T4, Melanocortin receptor 4; assay: Concentration for 50% inhibition of human melanocortin-4 receptor expressed in CHO cells using [125I]NDP-alpha-MSH as radioligand; assay type: cell-based
[18] = target: Melanocortin receptor 3 (Rattus norvegicus) (UniProt P32244); assay: Concentration of compound at 50% maximum cAMP accumulation at rat melanocortin-3 receptor; assay type: functional
Sequence of Melanocortin receptor 3 (Rattus norvegicus) (P32244 whole entry): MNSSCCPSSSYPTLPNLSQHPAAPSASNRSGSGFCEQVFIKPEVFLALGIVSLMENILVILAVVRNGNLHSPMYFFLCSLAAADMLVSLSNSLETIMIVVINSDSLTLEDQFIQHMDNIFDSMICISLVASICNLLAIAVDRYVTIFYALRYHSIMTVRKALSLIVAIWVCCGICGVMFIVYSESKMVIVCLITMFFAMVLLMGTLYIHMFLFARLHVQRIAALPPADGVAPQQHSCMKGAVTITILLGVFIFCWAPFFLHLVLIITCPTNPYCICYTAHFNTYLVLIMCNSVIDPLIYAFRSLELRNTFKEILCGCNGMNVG

[19] = Percent bioavailability at 1 mg/kg intravenous administration and 5 mg/kg peroral administration; assay type: ADME, organism-based; conditions: rat, in vivo, po
[20] = Maximum time taken by the compound at 0.5 mg/kg intravenous administration and 2 mg/kg peroral administration; assay type: ADME, organism-based, Canis lupus familiaris; conditions: dog, in vivo, po
[21] = Percent bioavailability at 1 mg/kg intravenous administration and 2 mg/kg peroral administration; assay type: ADME, organism-based; conditions: cercopithecidae, in vivo, po
[22] = target: Melanocortin receptor 4 (Rattus norvegicus) (UniProt P70596); assay: Concentration of compound at 50% maximum cAMP accumulation at rat melanocortin-4 receptor; assay type: functional
Sequence of Melanocortin receptor 4 (Rattus norvegicus) (P70596 whole entry): as the sequence (P56450 whole entry) above, with Y21H, P36S, S199T, T239A, S329P, S330G counted along it

[23] = Vdss at 0.5 mg/kg intravenous administration and 2 mg/kg peroral administration; assay type: ADME, organism-based, Canis lupus familiaris; conditions: dog, in vivo, read-out: Vdss
[24] = Half life at 0.5 mg/kg intravenous administration and 2 mg/kg peroral administration; assay type: ADME, organism-based, Canis lupus familiaris; conditions: dog, in vivo
Rattus norvegicus = assay: Percent increase in erectile activity in rats after intravenous administration of 3 mg/kg compound; assay type: functional
[25] = Maximum time taken by the compound at 1 mg/kg intravenous administration and 2 mg/kg peroral administration; assay type: ADME, organism-based; conditions: cercopithecidae, in vivo, po
[26] = target: T2, Melanocyte-stimulating hormone receptor; assay: Concentration for 50% inhibition of human melanocortin-1 receptor expressed in CHO cells using [125I]-NDP-alpha-MSH as radioligand; assay type: cell-based
Target sequence in this assay (Q01726 whole entry): as the sequence (Q01726 whole entry) above

[27] = Maximum time taken by the compound at 1 mg/kg intravenous administration and 5 mg/kg peroral administration; assay type: ADME, organism-based; conditions: rat, in vivo, po
[28] = Percent bioavailability at 0.5 mg/kg intravenous administration and 2 mg/kg peroral administration; assay type: ADME, organism-based, Canis lupus familiaris; conditions: dog, in vivo, po
Melanocortin receptor 5 [29] = target: T3, Melanocortin receptor 5; assay: Concentration of compound at 50% maximum cAMP accumulation at human melanocortin-5 receptor; assay type: functional
[30] = Vdss at 1 mg/kg intravenous administration and 2 mg/kg peroral administration; assay type: ADME, organism-based; conditions: cercopithecidae, in vivo, read-out: Vdss

In the case of CN1CCN[C@H](C(=O)N[C@H](Cc2ccc(F)cc2)C(=O)N2CCC(C(=O)NC(C)(C)C)(C3CCCCC3)CC2)C1, the clearance [1] is reported as 48.7 mL/min/kg, the IC50 (Melanocortin receptor 3 [2]) is reported as 2300 nM and 1100 nM and 1600 nM and the half-life [3] is reported as 1.3 h. It also gave an EC50 (Melanocortin receptor 3 [4]) of 990 nM, an EC50 [5] of 350 nM and an EC50 (Melanocortin receptor 5 [6]) of 1900 nM. For the same compound, the EC50 (Melanocortin receptor 5 [6]; cho) was 1900 nM, the EC50 (Melanocortin receptor 4 [7]) was 11 nM (2×) and 6 nM and 16 nM and the clearance [8] was 15.7 mL/min/kg. For the same compound, the clearance [9] was 5.6 mL/min/kg, the cAMP accumulation [10] was 66% and the Activation [11] was 4% and 7% and 11%. It also gave a Vd [12] of 5.4 L/kg, a half-life [13] of 1.6 h and a cAMP accumulation [14] of 85%. For the same compound, the cAMP accumulation (Melanocortin receptor 3 [15]) was 11%, the IC50 (Melanocortin receptor 5 [16]) was 2400 nM and 13000 nM and the IC50 (Melanocortin receptor 4 [17]) was 8 nM and 7 nM and 16 nM (2×). For the same compound, the cAMP accumulation [18] was 21%, the bioavailability [19] was 9% and the Tmax [20] was 0.75 h. The bioavailability [21] was 11%, the cAMP accumulation [22] was 76% and the Vd [23] was 1.2 L/kg. For the same compound, the half-life [24] was 4.1 h, the Activity (Rattus norvegicus) was 21.2% and the Tmax [25] was 5 h. For the same compound, the IC50 [26] was 1700 nM, the Tmax [27] was 1.54 h and the bioavailability [28] was 17%. The cAMP accumulation (Melanocortin receptor 5 [29]) was 32% and the Vd [30] was 1.2 L/kg.
Compound CC(C)CN1CCN[C@H](C(=O)N[C@H](Cc2ccc(F)cc2)C(=O)N2CCC(C(=O)NC(C)(C)C)(C3CCCCC3)CC2)C1 has an EC50 (Melanocortin receptor 5 [6]) of 340 nM, an EC50 (Melanocortin receptor 4 [7]) of 34 nM and a cAMP accumulation (Melanocortin receptor 3 [15]) of 19%. The IC50 (Melanocortin receptor 4 [17]) was 8 nM and the cAMP accumulation (Melanocortin receptor 5 [29]) was 22%.
Compound CCN1CCN[C@H](C(=O)N[C@H](Cc2ccc(F)cc2)C(=O)N2CCC(C(=O)NC(C)(C)C)(C3CCCCC3)CC2)C1 has an EC50 (Melanocortin receptor 5 [6]) of 840 nM, an EC50 (Melanocortin receptor 4 [7]) of 52 nM and a cAMP accumulation (Melanocortin receptor 3 [15]) of 3%. It also gave an IC50 (Melanocortin receptor 4 [17]) of 20 nM and a cAMP accumulation (Melanocortin receptor 5 [29]) of 20%.
For CN1CCN[C@@H](C(=O)N[C@H](Cc2ccc(F)cc2)C(=O)N2CCC(C(=O)NC(C)(C)C)(C3CCCCC3)CC2)C1, the EC50 (Melanocortin receptor 5 [6]) was 2700 nM, the EC50 (Melanocortin receptor 4 [7]) was 82 nM and the cAMP accumulation (Melanocortin receptor 3 [15]) was 7%. For the same compound, the IC50 (Melanocortin receptor 4 [17]) was 52 nM and the cAMP accumulation (Melanocortin receptor 5 [29]) was 39%.
For CN1CCN[C@H](C(=O)N[C@@H](Cc2ccc(F)cc2)C(=O)N2CCC(C(=O)NC(C)(C)C)(C3CCCCC3)CC2)C1, the cAMP accumulation (Melanocortin receptor 3 [15]) was 1% and the cAMP accumulation (Melanocortin receptor 5 [29]) was 3%.
With CN1CCNC[C@H]1C(=O)N[C@H](Cc1ccc(F)cc1)C(=O)N1CCC(C(=O)NC(C)(C)C)(C2CCCCC2)CC1 the EC50 (Melanocortin receptor 3 [4]) was 2900 nM, the EC50 (Melanocortin receptor 5 [6]) was 3300 nM and the EC50 (Melanocortin receptor 4 [7]) was 29 nM. The cAMP accumulation (Melanocortin receptor 3 [15]) was 19%, the IC50 (Melanocortin receptor 4 [17]) was 87 nM and the cAMP accumulation (Melanocortin receptor 5 [29]) was 19%.
In the case of CC(C)(C)NC(=O)C1(C2CCCCC2)CCN(C(=O)[C@@H](Cc2ccc(F)cc2)NC(=O)[C@@H]2CN(CC(F)F)CCN2)CC1, the EC50 (Melanocortin receptor 5 [6]) is reported as 510 nM, the EC50 (Melanocortin receptor 4 [7]) is reported as 52 nM and the cAMP accumulation (Melanocortin receptor 3 [15]) is reported as 6%. For the same compound, the IC50 (Melanocortin receptor 4 [17]) was 13 nM and the cAMP accumulation (Melanocortin receptor 5 [29]) was 19%.
With CC(C)(C)NC(=O)C1(C2CCCCC2)CCN(C(=O)[C@@H](Cc2ccc(F)cc2)NC(=O)[C@@H]2CNCCN2C(=O)OC(C)(C)C)CC1 the EC50 (Melanocortin receptor 5 [6]) was 1800 nM, the EC50 (Melanocortin receptor 4 [7]) was 13 nM and the cAMP accumulation (Melanocortin receptor 3 [15]) was 10%. The IC50 (Melanocortin receptor 4 [17]) was 18 nM and the cAMP accumulation (Melanocortin receptor 5 [29]) was 43%.
C[C@H](N)C(=O)N1CCN[C@H](C(=O)N[C@H](Cc2ccc(F)cc2)C(=O)N2CCC(C(=O)NC(C)(C)C)(C3CCCCC3)CC2)C1 showed an EC50 (Melanocortin receptor 5 [6]) of 2000 nM, an EC50 (Melanocortin receptor 4 [7]) of 270 nM and a cAMP accumulation (Melanocortin receptor 3 [15]) of 12%. The IC50 (Melanocortin receptor 4 [17]) was 30 nM and the cAMP accumulation (Melanocortin receptor 5 [29]) was 27%.
